Consider two molecules from US20240285670A1, “THERAPEUTIC TREATMENT OF TUMORS BY BLOCKING THE HEME SYNTHESIS-EXPORT AXIS” (Università degli Studi di Torino, priority 2021, published 2024).

Assay type in all cases: cell-based, human
The subject of series [1] is Caco2 cells. The experiment in a line: Flow cytometric analysis of apoptosis in Caco2 cells. The following applies: FLVCR1a-silenced vs scramble shRNA, synchronized Caco2 cells. From the text: (A) Proliferation of Caco2 cells assessed by crystal violet staining at the indicated days; bar=1000 μm. […] Staining quantification is reported in the bar graph as percentage of crystal violet stained area. Data represent mean±SEM, n=4. For statistical analyses, a two-way analysis of variance was used, followed by the Bonferroni correction for multiple group comparisons; *=p<0.05, ***=p<0.001. (B) Caco2 cells viability the day of plating (day 0) and three days after plaiting (day 3). The measure is considered a readout of cell proliferation. […] Data represent mean±SEM, n=3 wells. For statistical analyses, a two-way analysis of variance was used, followed by the Bonferroni correction for multiple group comparisons; *=p<0.05, **=p<0.01. (C, D, E) Representative flow cytometric analyses of apoptosis in synchronized Caco2 (C), SKCO1 (D) and C80 (E) cells. […] Data represent mean±SEM, n=4 wells pooled from two independent experiments. For statistical analyses, an unpaired Student's t-test was used; *=p<0.05, **=p<0.01. […]
Stained cells were analyzed using a FACSCanto II cytofluorimeter and processed with BD FACSDIVA Software v8.1 (BD Biosciences, Milan, IT; http://www.bdbiosciences.com/instruments/software/facsdiva/index.jsp/ RRID:SCR_001456), acquiring at least 10,000 events per sample or 25,000 cells per sample for cell cycle experiments.
(In flow cytometry, cells or beads pass a laser one at a time.)

Series [2] relates to Caco2 cells. Kind of series: Intracellular 5-ALA levels and 13C-isotope labelling (LC-MS) in Caco2 cells. The protocol:
(A) Heme content in Caco2 cells treated with 5 mM 5-ALA (black bars and white bars) or with 5 mM 5-ALA+0.5 mM SA (light grey outlined bars) for the indicated time points. […] Values are expressed as relative fluorescence intensity. Data represent mean±SEM, n=2. For statistical analyses, a two-way analysis of variance was used, followed by the Bonferroni correction for multiple group comparisons; **=p<0.01, ***=p<0.001. 5-ALA, 5-aminolevulinic acid; SA, succinylacetone. (B) Intracellular 5-ALA levels. […] Values are expressed as peak area/μg proteins. Data represent mean±SEM of n=4 wells pooled from two independent experiments. For statistical analyses, an unpaired Student's t-test was used; **=p<0.01. 5-ALA, 5-aminolevulinic acid. (C, D) Accumulation of ^13C2-5-ALA in cells incubated with U-^13C-glucose (C) or of ^13C3-5-ALA in cells incubated with U-^13C-glutamine (D) for the indicated time. […] Values are expressed as peak area/μg proteins. Data represent mean±SEM of n=4 wells pooled from two independent experiments. For statistical analyses, a two-way analysis of variance was used, followed by the Bonferroni correction for multiple group comparisons; ***p<0.001. […] Transcript abundance, normalized to beta-actin mRNA expression, is expressed as a fold increase over a calibrator sample. […] Band intensities were measured by densitometry and normalized to vinculin expression. […]

Another series concerns SHSY5Y cells. The experiment in a line: Flow cytometric analysis of apoptosis in SHSY5Y cells. The settings on record: 5 mM ALA for 72 hours.

“FLVCR1a shRNA: shRNA specifically down-regulating FLVCR1a without targeting FLVCR1b; pLKO.1 lentiviral clone TRCN0000059599, antisense SEQ ID No.: 2 (antisense TTGCTAATGATGCTGTACTGG; sense CCAGTACAGCATCATTAGCAA)”: the basal apoptosis entry in the series on Caco2 cells [1] is “higher extent of basal apoptosis”. Moreover, the “Intracellular 5-ALA levels” value with Caco2 cells [2] (FLVCR1a-silenced vs scramble shRNA Caco2 cells) is reported as “lower amount of 5-ALA”. Moreover, in the series on Caco2 cells [2] (U-13C-glucose or U-13C-glutamine, time course, FLVCR1a-silenced vs scramble), the “incorporation of labelled carbons in 5-ALA” value is listed as “reduced incorporation of labelled carbons in 5-ALA”.
Turning to `Cl.NCC(=O)CCC(=O)O` [5-ALA, 5-Aminolevulinic acid hydrochloride], the apoptosis result in the series with SHSY5Y cells is on record as “increased apoptosis”.
